Laboratory results reported in patent US8470789B2, “Method for inducing and accelerating cells” (DCPrime B.V., priority 2008, dated 2013).

What was measured:
CD14+ MUTZ3 cells = assay: Drug-induced differentiation of isolated CD14+ MUTZ3 cells; format: cell-based, human; conditions: 72 hours, vs PBS control
Method: (§1) For mitoxantrone and doxorubicin cultures, 0.1-0.2 million cells/ml of MUTZ3 progenitors or CD34+, CD14+ and double negative (DN) magnetic bead sorted (MACS) MUTZ3 subsets (Miltenyi Biotec, Bergisch Gladbach, Germany) were seeded in 12-well plates in MUTZ3 routine medium or MUTZ3-DC/LC medium in the absence or presence of 1.04 nM, 2.08 nM, 5.6 nM, 16.7 nM mitoxantrone or 16.7 nM or 100 nM doxorubicin and were cultured for 72-96 hours before quantification of viable cells by trypan blue exclusion and phenotypic characterization by flowcytometry. DC and LC were matured (as above) on day 3 or 4 for 24 hours and were functionally tested in mixed leukocyte reaction or migration assays. In case of ABC transporter inhibition, 200 nM Ko-143 was added on day 0 to block BCRP activity.
Cells were immunophenotyped using the following FITC- and for PE-conjugated Mabs reactive against: CD1a (1:25), CD54 (1:25), CD80 (1:25), CD86 (1:25), CD40 (1:10) (PharMingen, San Diego, Calif.), CD14 (1:25), HLA-DR (1:25), DC-SIGN (1:10) (BD Biosciences, San Jose, Calif.), CD83 (1:10), CD34 (1:10), Langerin (1:10) (Immunotech, Marseille, France). […] Cells were washed and analyzed on a FACS-calibur flow cytometer (Becton and Dickinson, San Jose, Calif.) equipped with CellQuest analysis software and the results were expressed as mean or median fluorescence intensity or the percentage of positive cells. […]

[1] = system: MUTZ3 subpopulations (CD14+, CD34+, DN); assay: Apoptosis and cell death (Annexin V) in MACS-separated MUTZ3 subpopulations; format: cell-based, human
Method: as §1
(§2) Cells were immunophenotyped using the following FITC- and for PE-conjugated Mabs reactive against: CD1a (1:25), CD54 (1:25), CD80 (1:25), CD86 (1:25), CD40 (1:10) (PharMingen, San Diego, Calif.), CD14 (1:25), HLA-DR (1:25), DC-SIGN (1:10) (BD Biosciences, San Jose, Calif.), CD83 (1:10), CD34 (1:10), Langerin (1:10) (Immunotech, Marseille, France). In short, 2.5 to 5·10^4 cells were washed in PBS supplemented with 0.1% BSA and 0.02% NaN3 and incubated with specific or corresponding control Mabs for 30 minutes at 4° C. Where applicable, AnnexinV and/or PI (Propidium iodide) were added after marker staining and 10 minutes prior to analysis. Cells were washed and analyzed on a FACS-calibur flow cytometer (Becton and Dickinson, San Jose, Calif.) equipped with CellQuest analysis software and the results were expressed as mean or median fluorescence intensity or the percentage of positive cells.

[2] = system: CD14+ monocytes isolated from blood; assay: Response of CD14+ monocytes isolated from blood to mitoxantrone; format: cell-based, human
[3] = system: CD34+ heamatopoietic precursors isolated from human blood; assay: Response of CD34+ heamatopoietic progenitors from blood to mitoxantrone; format: cell-based; conditions: 16.7 nM mitoxantrone
MUTZ3-LC cultures = assay: Acceleration of MUTZ3-LC differentiation in the presence of cytokines; format: cell-based, human
Method: The AML-derived CD34+ MUTZ3 cell line was cultured as described before (Masterson A. J. (2002) Blood 100, 701-703.). In brief, MUTZ3 progenitors were cultured in MEM-alpha (Minimum essential medium, Gibco) containing 20% fetal calves serum (FCS), 100 IU/ml sodium-penicillin, 100 microg/ml streptomycin, 2 mM L-glutamine (pen/strep/glut), 50 microM beta-mercaptoethanol (2ME) and 10% 5637 conditioned medium (MUTZ3 routine medium) in 12-well plates (Co-star) at a concentration of 0.2 million cells/ml and were passaged twice weekly. LC were cultured in MEM-alpha containing 20% FCS, pen/strep/glut, 2ME and 10 ng/ml TGF-beta 1 (Biovision, Mountain View, Calif.), 100 ng/ml rhGM-CSF (Sagramostim, Berlex) and 2.5 ng/ml TNFalpha (Strathmann Biotec) (MUTZ3-LC medium) for 10 days in 12-well plates at a concentration of 0.1 million cells/ml, adding cytokines at day 0, 4 and 7. Interstitial DC were cultured in MEM-alpha containing 20% FCS, pen/strep/glut, 2ME and 10 ng/ml IL-4 (R&D), 100 ng/ml rhGM-CSF and 2.5 ng/ml TNFalpha (MUTZ3-DC medium) Where applicable, immature DC and LC were matured, respectively, by adding 50 ng/ml TNFalpha, 100 ng/ml IL-6 (Strathmann Biotec), […] (Strathmann Biotec) and 1 microg/ml prostaglandin E2 (PGE2) (Sigma Aldrich) for 48 hours.
as §1, §2
Next we tested whether the addition of mitoxantrone or doxorubicin at the start of MUTZ3-LC cultures could boost differentiation. […] In FIG. 4A FSC/SSC plots of day 4 LC cultured with PBS or mitoxantrone and CD1a/Langerin expression on these cultures are depicted.

[4] = system: MUTZ3-DC / peripheral blood lymphocytes; assay: Mixed leukocyte reaction (MLR), T cell proliferation; format: cell-based, human; conditions: day 4 mitoxantrone-generated DC
Method: 1·10^2-3·10^4 DC were co-cultured with 1·10^5 peripheral blood lymphocytes for 4 days in 96-wells plates in IMDM (Iscove's modified dulbecco's medium) containing 10% human pooled serum (HPS), pen/strep/glut and 2ME. At day 4, 2.5 μCi/ml [^3H]-thymidine (6.7 Ci/mmol, MP Biomedicals, Irvine, Calif.) was added per well for 16 hours. Plates were harvested onto glass fiber filtermats (Packard Instruments, Groningen, The Netherlands) using a Skatron cell harvester (Skatron Instruments, Norway), and [^3H]-thymidine incorporation was quantified using a Topcount NXT Microbetacounter (Packard, Meriden, Conn.).
(§3) If such mitoxantrone-generated DC are to be used for future vaccination strategies, they need to be functionally fully active. Therefore MUTZ3-DC cultured in the absence or presence of mitoxantrone, were analyzed in a trans-well assay for their capacity to migrate towards the chemokines CCL19 and CCL21 (FIG. 7A) and were tested in a MLR for their capacity to stimulate allogeneic T cell proliferation (FIG. 7B).

[5] = system: MUTZ3-DC and -LC cultures; assay: Titration of mitoxantrone in MUTZ3-DC and -LC cultures, phenotype analysis; format: cell-based, human
Method: as §1, §2
In MUTZ3-DC and -LC cultures, a 2-step titration of the 16.7 nM mitoxantrone concentration was performed and DC/LC phenotypes were analyzed after 72-96 hours.

MUTZ3 progenitors [6] = assay: Expansion and DC marker expression of MUTZ3 progenitors cultured with drug (flow cytometry); format: cell-based, human
Method: as §1, §2
Similar experiments were carried out with the drug doxorubicin.

MUTZ3-DC = assay: Trans-well migration towards CCL19 and CCL21; format: cell-based, human; conditions: day 4 mitoxantrone-generated DC
Method: as §1, §3

human skin DC = assay: Human skin explant DC migration after intradermal injection; format: cell-based
Method: To establish whether mitoxantrone could be beneficial as a local adjuvant, human skin explants were intra-dermally injected with GM-CSF and IL-4 in combination with 2.08 nM, 5.6 nM or 16.7 nM mitoxantrone and 6 mm punch biopsies were floated in medium containing the same concentration of mitoxantrone. Skin DC were allowed to migrate from the biopsies for 2 days, after which they were harvested, quantified and phenotyped.

CD34+ MUTZ3 cells = assay: Drug-induced differentiation of isolated CD34+ MUTZ3 cells; format: cell-based, human; conditions: for share of induced CD1a+ cells also expressing Langerin: CD34+ sorted cells
Method: as §1, §2
To see whether the skewing effect was due to CD34^+ cell death, automatically leading to an altered CD34^+/CD14^+ ratio or whether it induced differentiation of CD34^+ cells into CD14^+ cells and LC, isolated CD34^+ and CD14^+ cells were incubated with 16.7 nM mitoxantrone or 100 nM doxorubicin for 72 hours and were analyzed for differentiation induction.

MUTZ3 progenitors [7] = assay: 96 hour cytotox assay (Trypan blue exclusion); format: cell-based, human
Method: as §1
MUTZ3 progenitor cells were analyzed for their sensitivity to the cytostatic drug mitoxantrone. […] (An example of such trypan blue assay is: place a suitable volume of a cells suspension in appropriate tube add an equal volume of 0.4% Trypan blue and gently mix, let stand for 5 minutes at room temperature. Place 10 μl of stained cells in a hemocytometer and count the number of viable (unstained) and dead (stained) cells. Calculate the average number of unstained cells in each quadrant, and multiply by 2*10^4 to find cells/ml. The percentage of viable cells is the number of viable cells divided by the number of dead and viable cells, and the IC50 can be determined)

[8] = 2.08 nM mitoxantrone, mature day 4 MUTZ3-DC/LC

## O=C1c2c(O)ccc(O)c2C(=O)c2c(NCCNCCO)ccc(NCCNCCO)c21 [mitoxantrone]
CD14+ MUTZ3 cells; 16.7 nM mitoxantrone
  percentages of CD1a+ or Langerin+ cells in CD14+ cells: not affected
[1]; mitoxantrone, 72 hours
  apoptosis and cell death, CD34+ population: sensitive to the drug
[1]; mitoxantrone, 72 hours, Annexin V
  apoptosis and cell death, CD14+ population: not affected
[1]; mitoxantrone, 72 hours, sensitivity relative to CD34+
  apoptosis and cell death, DN population: to a lesser extent
[2]
  cell viability: no effect
  differentiation induction: nor was any differentiation induction observed
[3]; 72 hours, Flt3-L and SCF
  CD34+ and CD14+ cell content: loss of most CD34 positive cells and an increase in CD14 positive cells
[3]; within 72 hours, LC-skewing cytokines, n=2
  percentage of CD1a+ Langerin+ cells: increase
MUTZ3-LC cultures; 16.7 nM mitoxantrone, day 4
  expression levels of HLA-DR and CD54: higher expression levels
  expression of co-stimulatory molecules CD80 and CD86: enhanced expression
MUTZ3-LC cultures; 16.7 nM mitoxantrone, day 4, 3 experiments, p=0.04 and p=0.02
  percentage of CD14+ and CD34+ cells: significant decrease
MUTZ3-LC cultures; 16.7 nM mitoxantrone, day 4, p=0.03
  amount of cells expressing maturation marker CD83: significant raise
MUTZ3-LC cultures; mitoxantrone with cytokines, control cultures 8-10 days
  day on which fully differentiated cells were obtained: 4 days
MUTZ3-LC cultures; single dose 16.7 nM mitoxantrone at day 0, read day 4, control 25%
  cells CD1a hi Langerin+: 76%
[4]
  capacity to stimulate allogeneic T cell proliferation: equipped to induce T cell proliferation
[5]; 2.08 nM mitoxantrone, 72-96 hours
  effect on MUTZ3-DC and -LC differentiation: robust effect
[5]; 2.08 nM mitoxantrone, day 4 vs day 7 control
  HLA-DR expression vs control cultures: even higher than on the control cultures
[5]; [8]
  amount of CD1a, Langerin, CD80, CD40 and CD83 expressing cells: increased
  expression levels of CD80, CD86, CD40 and HLA-DR: enhanced
[5]; cultures supplied with mitoxantrone
  Langerin expression in MUTZ3-DC cultures: increased
MUTZ3 progenitors [6]; 5.6 nM and 16.7 nM mitoxantrone, 72 hours
  cell division (expansion): dramatically compromising cell division
MUTZ3 progenitors [6]; 5.6 nM and 16.7 nM mitoxantrone, 72 hours, no differentiating cytokines
  differentiation of MUTZ3 progenitors (CD34+/CD14+ ratio, CD1a, Langerin, CD86, CD80): drove the surviving MUTZ3 progenitors to differentiation
MUTZ3-DC
  capacity to migrate towards CCL19 and CCL21: comparable to day 7 matured control DC
Human skin DC; 2.08 nM mitoxantrone with GM-CSF and IL-4, intradermal, 2 days
  increase in amount of migrated skin DC: 50-60%
Human skin DC; 5.6 nM mitoxantrone with GM-CSF and IL-4, intradermal, 2 days
  increase in amount of migrated skin DC: 50-60%
Human skin DC; 16.7 nM mitoxantrone with GM-CSF and IL-4, intradermal, 2 days
  amount of migrated skin DC: only slightly increased
Human skin DC; low dose of mitoxantrone in plain medium, intradermal
  amount of skin emigrating DC: increased the amount of skin emigrating DC
CD34+ MUTZ3 cells; 16.7 nM mitoxantrone, 72 hours
  share of induced CD1a+ cells also expressing Langerin: approximately 50%
CD34+ MUTZ3 cells; 16.7 nM mitoxantrone, 72 hours, n=3, p=0.02 CD1a, p=0.03 Langerin
  CD1a and Langerin expression in CD34+ subset: significant increase
MUTZ3 progenitors [7]; Homo sapiens, 96 hour, Trypan blue exclusion, n=3
  IC50: 1.5 ± 0.5 nM
MUTZ3 progenitors [7]; cytotoxic effect
  IC60 concentration on MUTZ3 progenitors: 5.6 nM
  IC70 concentration on MUTZ3: 16.7 nM

## COc1ccc2c3c([nH]c2c1)[C@H](CC(C)C)N1C(=O)[C@H](CCC(=O)OC(C)(C)C)NC(=O)[C@@H]1C3 [Ko-143]
CD34+ MUTZ3 cells; 200 nM Ko-143 added on day 0, mitoxantrone-treated CD34+ MUTZ3 cells
  abrogation of mitoxantrone-induced CD1a and Langerin expression by BCRP inhibitor: could not abrogate

## COc1cccc2c1C(=O)c1c(O)c3c(c(O)c1C2=O)C[C@@](O)(C(=O)CO)C[C@@H]3O[C@H]1C[C@H](N)[C@H](O)[C@H](C)O1 [doxorubicin]
CD14+ MUTZ3 cells; 100 nM doxorubicin
  percentages of CD1a+ or Langerin+ cells in CD14+ cells: not affected
[1]; 100 nM doxorubicin
  apoptosis and cell death in the three MUTZ3 subpopulations, compared with mitoxantrone: Comparable results
MUTZ3 progenitors [6]; 16.7 nM doxorubicin
  LC differentiation of MUTZ3 progenitors: no effects were observed
MUTZ3 progenitors [6]; IC70 concentration of doxorubicin (~100 nM)
  LC differentiation of MUTZ3 progenitors: induced LC differentiation of MUTZ3 progenitors
CD34+ MUTZ3 cells; 100 nM doxorubicin, 72 hours
  CD1a and Langerin expression on CD34+ MUTZ3 cells: induced CD1a and Langerin expression
  share of induced CD1a+ cells also expressing Langerin: approximately 50%
MUTZ3 progenitors [7]; cytotoxic effect
  IC70 concentration on MUTZ3: ~100 nM
